Values quoted from earlier work in article PMC11998001, “Towards P2X4 Positron Emission Tomography Tracing” (Journal of Medicinal Chemistry, 2025).

How the values were obtained:
[1] = set-up: method as in PMID 33125712
tactile allodynia = test system: tactile allodynia; set-up: method as in PMID 33125712
[2] = test system: NLRP3 Inflammasome in macrophages; set-up: method as in PMID 39805099
[3] = pH 7.4
[4] = for MLM stability: mouse, microsomes, 1.5 h
[5] = for blood-brain barrier (BBB) permeation of radioligand (in words): in vivo, 18F-radiolabeled form

For `O=C1CN=C(c2cccc(Br)c2)c2oc3ccccc3c2N1` [5-BDBD], the “water solubility (in words)” value is listed as “low water solubility”.

In the case of `NS(=O)(=O)c1cc(NC(=O)Cc2ccccc2)ccc1Oc1cccc(Cl)c1` [BAY-1797], the “blood-brain barrier permeation (in words)” value [1] is given as “does not permeate the blood–brain barrier” and the “water solubility (in words)” value is given as “high water solubility”.

In the case of `CC(C)c1cc(Br)c(NC(=O)Nc2cccnc2)c(Br)c1` [BX-430], the “antagonist potency at the hP2X4 receptor (in words)” value (hP2X4R; allosteric antagonist) is listed as “submicromolar”.

For `CNCC[C@H](Oc1cccc2ccccc12)c1cccs1` [Duloxetine], the “effect on tactile allodynia (in words)” value (tactile allodynia) is listed as “reverse tactile allodynia”.

For `Cc1cc(F)ccc1S(=O)(=O)Nc1ccc(N2C(=O)CC(=O)Nc3c2ccc2ccccc32)cc1` [Erlitz 44], the “NLRP3 inflammasome activation / interleukin-1β release (in words)” value [2] is given as “able to block NLRP3 inflammasome activation”, the logD7.4 [3] is given as 3.59 and the “stability in mouse microsomes (in words)” value [4] is given as “higher stability in mouse microsomes”. The MLM stability [4] was 93%.

For `Cc1cc(F)ccc1CS(=O)(=O)Nc1ccc(N2C(=O)CC(=O)Nc3c2ccc2ccccc32)cc1` [Erlitz 64], the “NLRP3 inflammasome activation / interleukin-1β release (in words)” value [2] is listed as “able to block NLRP3 inflammasome activation”, the logD7.4 [3] is listed as 3.68 and the MLM stability [4] is listed as 64%.

For `Cc1cc([18F])ccc1S(=O)(=O)Nc1ccc(N2C(=O)CC(=O)Nc3c2ccc2ccccc32)cc1` [Erlitz [^18F]44], the “in vivo metabolism of radioligand (in words)” value [5] is listed as “rapid, in vivo metabolism” and the “blood-brain barrier (BBB) permeation of radioligand (in words)” value [5] is listed as “almost no blood–brain barrier (BBB) permeation”.

In the case of `Cc1cc([18F])ccc1CS(=O)(=O)Nc1ccc(N2C(=O)CC(=O)Nc3c2ccc2ccccc32)cc1` [Erlitz [^18F]64], the “in vivo metabolism of radioligand (in words)” value [5] is given as “rapid, in vivo metabolism” and the “blood-brain barrier (BBB) permeation of radioligand (in words)” value [5] is given as “almost no blood–brain barrier (BBB) permeation”.

For `O=C1CC(=O)N(c2cccc(-c3noc(=S)[nH]3)c2)c2ccc3ccccc3c2N1` [NP-1815-PX], the “water solubility (in words)” value is given as “high potency and water solubility”.

In the case of `O=C(OCc1ccccc1)N1c2ccccc2Oc2ccccc21` [PSB-12054], the IC50 (hP2X4R; representative P2X4 antagonists, Figure 2) is given as 190 nM.

In the case of `Cc1ccc(S(=O)(=O)N2c3ccccc3Oc3ccccc32)cc1` [PSB-12062], the “water solubility (in words)” value is given as “more water-soluble than the first”.

In the case of `Fc1ccc([C@@H]2CCNC[C@H]2COc2ccc3c(c2)OCO3)cc1` [Paroxetine], the “effect on tactile allodynia (in words)” value (tactile allodynia) is listed as “reverse tactile allodynia”.
